The values below come from PMC10969560, “Eye Drop with Fas-Blocking Peptide Attenuates Age-Related Macular Degeneration” (Cells, 2024).

Data set [1] concerns NaIO3-induced retinal degeneration mice. In words: In vivo real-time PCR of eye posterior hemisphere in NaIO3-induced retinal degeneration mouse model. On the set-up: species or system BALB/c mice. Conditions: intravitreal injection, N=3, Figure 3D. An excerpt:
The mouse eye posterior hemisphere was dissected using Vannas scissors. Subsequently, total RNA was extracted from the posterior hemisphere of the left eye using the RNAiso kit (Takara). RNA was reverse-transcribed with the High-Capacity cDNA Reverse Transcription Kit (Applied Biosystems, Waltham, MA, USA) and quantified using PowerUp™ SYBR™ Green Master Mix (Thermo Fisher Scientific, Waltham, MA, USA) on an ABI 7500 Fast Real-Time PCR system (Applied Biosystems, Waltham, MA, USA). Relative expression was determined using the ΔΔCt method, normalized against GAPDH mRNA levels. The primer sequences used are depicted in Table 2.
(In general: Quantitative PCR measures a nucleic acid by following its amplification.)

Data set [2] shares this test system. Conditions: mouse, in vivo.
Method: Retinal degeneration was induced by intravenous injection of NaIO3 (30 mg/kg) in 6-week-old male BALB/c mice (N = 3 per group), weighing 18–22 g (Orient Bio, Seoul, Korea). The eye drop administration group received peptides dissolved in PBS at dosages of 10 mg/mL (50 μg/5 μL) per ocular instillation. For intravitreal administration, peptide solutions dissolved in PBS were administered into the vitreous humor at a concentration of 1 mg/mL (1 μg/1 μL) per administration.
The N-terminal of the target peptide was fluorescently tagged using Alexa Fluor™ 647 NHS Ester (Succinimidyl Ester) (Invitrogen, Carlsbad, CA, USA), following the manufacturer’s protocol. Subsequently, free dye molecules were removed through a PD-10 desalting column (GE Healthcare, Milwaukee, WI, USA). Seven days after induction with NaIO3, Alexa647-conjugated peptides were administered via eye drops. Twelve hours after the last administration, organs were harvested for experiments, and Alexa647 signals were detected on whole organs using a FOBI imaging machine ([sequence], Cheongju, Republic of Korea).
For IHC, eyes were harvested and embedded in the Tissue-Tek® OCT Compound (Sakura Finetek Europe BV, Alphen aan den Rijn, The Netherlands) to prepare cryoblocks for cryosectioning. After freezing the eyes in the Tissue-Tek® OCT Compound, the eyes were cryosectioned to a thickness of 10 μm and mounted with ProLong™ Glass Antifade Mountant with NucBlue™ Stain (Invitrogen). The anti-Fas rabbit mAb (#4233S, Cell Signaling Technology, Danvers, MA, USA) was used to capture the Fas receptor, and the Fas antibody was subsequently detected using Goat Anti-Rabbit IgG H&L (Alexa Fluor® 488) (ab150077, Abcam, Cambridge, UK). A ZEISS Axio Scan.Z1 Slide Scanner (Carl Zeiss, Oberkochen, Germany) was employed to detect NucBlue™ stained cell nuclei and the Alexa647-conjugated peptide signals.
Data set [3] has as its system NaIO3-induced retinal degeneration rabbits. In words: Fundus imaging of RPE degenerated area in NaIO3-induced retinal degeneration rabbit model. Format: in vivo, chinchilla rabbits. Conditions: for RPE degeneration compared with mock treatment (fundus imaging): NaIO3 60 mg/kg i.v., N=4, Figure 4B; for level of RPE degeneration on day 14 compared with mock group (fundus imaging): day 14, N=4, Figure 4B. How it is done:
The efficacy of the treatment was evaluated through an experiment conducted by KNOTUS, a contract research organization. In brief, retinal degeneration was induced by intravenous injection of NaIO3 (60 mg/kg) in 20 chinchilla rabbits, weighing 2 kg.
The eye drop administration group received dosages of 5 mg/mL (250 μg/50 μL) per ocular instillation. For intravitreal administration, peptide solutions (5 mg/mL) were administered in increments of 40 μL per administration. A pipette was used to administer the test substance onto the central cornea of the right eye for each experimental group.
Anesthetized animals were administered the test substance via subconjunctival injection into the right eye using a 31-gauge syringe needle attached to a syringe. In the case of eye drop administration, the peptides and PBS were administered twice daily for 2 weeks, for a total of 28 administrations. For intravitreal administration, a single dose of the peptide was administered the day after the NaIO3 injection.
Before the administration of NaIO3 (Day 0) and upon concluding the experiment (Day 14), the right eyes of the rabbits were treated with a mydriatic agent (1% midriacyl eye drops). Subsequently, the rabbits were anesthetized with a mixture of Zoletil®50 (Virbac, Carros, France) and Rompun^TM (Bayer AG, Leverkusen, Germany) through intravenous injection (marginal ear vein) at a dosage of 0.1 mL/kg. Fundus imaging was conducted using a fundus camera (TRC-50IX, TOPCON, Tokyo, Japan). The retinal images were analyzed using Image J software version 1.54d (NIH, Bethesda, MD, USA) to determine the area of degeneration in the RPE, with the RPE injury area being manually selected. The total area of the retina, excluding the optic nerve region, was defined as the total area. The proportion of degenerated area was calculated as a percentage using Equation (1). Degenerated area (%) = Degenerated area/Total area(1)

The subject of data set [4] is NaIO3-induced retinal degeneration mice. Description: H&E histology in NaIO3-induced retinal degeneration mouse model. Format: in vivo, BALB/c mice. Conditions: NaIO3 30 mg/kg i.v., N=3, Figure 3B. How it is done:
To confirm the therapeutic effect of 6R-FBP, histological evaluation was conducted through hematoxylin and eosin (H&E) staining and the TUNEL assay. The eyes were fixed with 4% paraformaldehyde in PBS at room temperature for 20 min. After fixation, the eyes were sequentially incubated in 10%, 20%, and 30% (w/v) sucrose solution diluted in PBS for 30 min each at room temperature. Subsequently, the eyeballs were sagittally halved with a razor blade and embedded in Tissue-Tek® OCT Compound, and then frozen immediately in a liquid nitrogen chamber. Trimming was minimized to maintain controlled distances and ensure consistency, and sections were sliced at a thickness of 10 μm. Sections from the eye cryoblock were used for H&E staining and the TUNEL assay. The TUNEL assay was conducted according to the manufacturer’s protocol using the TUNEL assay kit (Abcam).

As to YCDEHFCY [FBP], the “levels of M2 macrophages compared to the mock group (qPCR, CD206)” value in data set [1] is recorded as “increased levels”. Also, the “expression of Fas receptor, inflammatory cytokines, and macrophages compared to the mock group (qPCR)” value in data set [1] (posterior hemisphere) is listed as “decreased expression”. Moreover, the “transfer to other organs (fluorescence signal vs normal group)” value in data set [2] is recorded as “not transferred to any other organ but the eyes”. The “RPE degeneration compared with mock treatment (fundus imaging)” value in data set [3] (eye drops 5 mg/mL (250 μg/50 μL) twice daily for 14 days) is recorded as “significant reduction in RPE degeneration”; in data set [3] (single intravitreal injection 5 mg/mL, 40 μL) it was “significant reduction in RPE degeneration”. For the same sequence, the “level of RPE degeneration on day 14 compared with mock group (fundus imaging)” value in data set [3] (eye drops twice daily for 14 days) and in data set [3] (single intravitreal injection) was “significantly lower” throughout. The “therapeutic effect on integrity of the retinal layer (H&E staining)” value in data set [4] (eye drop application, peptides 10 mg/mL (50 μg/5 μL)) is “no therapeutic effect”; in data set [4] (intravitreal injection 1 mg/mL (1 μg/1 μL)) it was “therapeutic effects”.
